Measured values: US7109243B2 (IRM LLC, priority 2003, dated 2006)
Read-outs that look alike come from different tables or passages of the source.

Assays:
[1] = target: T1, Cathepsin K (Homo sapiens, UniProt P43235); experiment: Cathepsin K inhibition assay (fluorogenic peptide substrate); selectivity ratio vs cathepsin S; format: biochemical
T1 sequence (P43235 115-329): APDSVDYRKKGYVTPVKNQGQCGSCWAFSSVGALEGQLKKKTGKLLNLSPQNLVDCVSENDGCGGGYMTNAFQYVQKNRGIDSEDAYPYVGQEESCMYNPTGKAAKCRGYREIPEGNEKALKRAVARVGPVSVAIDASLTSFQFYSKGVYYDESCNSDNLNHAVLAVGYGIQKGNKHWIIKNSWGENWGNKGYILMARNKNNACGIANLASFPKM
In short: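 Inhibition constants for competitive inhibitors come from apparent values fitted to enzyme progress curves. Substrate, acetyl-Lys-His-Pro-Lys-aminocarbamoylcoumarin (40 μM final), starts the reaction; fluorescence rise read at 380 nm excitation, 450 nm emission. Selectivity ratio: other cathepsin constant over cathepsin S constant.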

[2] = target: Cathepsin S (Homo sapiens, UniProt P25774); experiment: Cathepsin S inhibition assay (fluorogenic peptide substrate); format: biochemical
In short: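 Ki values come from nonlinear fitting of inhibited hydrolysis rates, taking free and total inhibitor concentrations as equal. Rates measured as rising fluorescence at 380/450 nm after reaction start with 50 μM final acetyl-HPVK-aminocarbamoylcoumarin.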

[3] = ratio of cathepsin K inhibition constant to cathepsin S inhibition constant, Table II
[4] = Table II, compounds of Formula I, read-out: Ki Cat. S

Cathepsin S, sequence (P25774 115-331, species assumed): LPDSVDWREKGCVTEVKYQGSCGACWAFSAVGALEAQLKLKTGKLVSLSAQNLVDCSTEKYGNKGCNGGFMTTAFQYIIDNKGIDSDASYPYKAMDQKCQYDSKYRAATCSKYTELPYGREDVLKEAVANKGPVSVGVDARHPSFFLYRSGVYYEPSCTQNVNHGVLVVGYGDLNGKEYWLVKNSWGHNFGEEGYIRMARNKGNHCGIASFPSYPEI

## CC(C(=O)N[C@@H](CC1CCCCC1)C(=O)NCCNc1ccc(F)cc1)c1ccc(Cl)cc1 (stereo partly drawn) [Compound 312, 2-(4-Chloro-phenyl)-N-{2-cyclohexyl-1-(S)-[2-(4-fluoro-phenylamino)-ethylcarbamoyl]-ethyl}-propionamide]
[1]; [3]
  Selectivity for Cat. S over Cat. K: ++ (++, >100)
[2]; [4]
  Ki: < 100 nM

## COc1ccc(NCCNC(=O)[C@H](CCC2CCCCC2)NC(=O)c2cccc(-c3ccccc3)c2)cc1 [Compound 144, (S)-Biphenyl-3-carboxylic acid {3-cyclohexyl-1-[2-(4-methoxy-phenylamino)-ethylcarbamoyl]-propyl}-amide]
[1]; [3]
  Selectivity for Cat. S over Cat. K: +++ (+++, >1000)
[2]; [4]
  Ki: < 1000 nM

## O=C(N[C@@H](CC1CCCCC1)C(=O)NCCNc1ccc(F)cc1)C(c1ccccc1)c1ccccc1 [Compound 307, 3-Cyclohexyl-2-(S)-diphenylacetylamino-N-[2-(4-fluoro-phenylamino)-ethyl]-propionamide]
[1]; [3]
  Selectivity for Cat. S over Cat. K: +++ (+++, >1000)
[2]; [4]
  Ki: < 100 nM

## O=C(N[C@@H](CC1CCCCC1)C(=O)NCCNc1ccc(F)cc1)c1ccoc1 [Compound 272, Furan-3-carboxylic acid (S)-{2-cyclohexyl-1-[2-(4-fluoro-phenylamino)-ethylcarbamoyl]-ethyl}-amide]
[1]; [3]
  Selectivity for Cat. S over Cat. K: ++ (++, >100)
[2]; [4]
  Ki: < 100 nM

## O=C(N[C@@H](CC1CCCCC1)C(=O)NCCNc1ccc(OC(F)(F)F)cc1)c1ccc(-c2ccc(OC(F)(F)F)cc2)s1 [Compound 207, (S)-5-(4-Trifluoromethoxy-phenyl)-thiophene-2-carboxylic acid {2-cyclohexyl-1-[2-(4-trifluoromethoxy-phenylamino)-ethylcarbamoyl]-ethyl}-amide]
[1]; [3]
  Selectivity for Cat. S over Cat. K: ++ (++, >100)
[2]; [4]
  Ki: < 1000 nM

## O=C(Cc1cc(F)cc(F)c1)N[C@@H](CC1CCCCC1)C(=O)NCCNc1ccc(F)cc1 [Compound 125, 3-Cyclohexyl-2-(S)-[2-(3,5-difluoro-phenyl)-acetylamino]-N-[2-(4-fluoro-phenylamino)-ethyl]-propionamide]
[1]; [3]
  Selectivity for Cat. S over Cat. K: ++ (++, >100)
[2]; [4]
  Ki: < 100 nM

## COc1ccc2[nH]c(C(=O)N[C@@H](CC3CCCCC3)C(=O)NCCNc3ccc(OC(F)(F)F)cc3)cc2c1 [Compound 22, 5-Methoxy-1H-indole-2-carboxylic acid (S)-{2-cyclohexyl-1-[2-(4-trifluoromethoxy-phenylamino)-ethylcarbamoyl]-ethyl}-amide]
[1]; [3]
  Selectivity for Cat. S over Cat. K: + (+, >10)
[2]; [4]
  Ki: < 1000 nM

## COc1ccc(NCCNC(=O)[C@H](CC2CCCCC2)NC(=O)c2ccc(F)c(F)c2)cc1 [Compound 146, (S)-N-{2-Cyclohexyl-1-[2-(4-methoxy-phenylamino)-ethylcarbamoyl]-ethyl}-3,4-difluoro-benzamide]
[1]; [3]
  Selectivity for Cat. S over Cat. K: +++ (+++, >1000)
[2]; [4]
  Ki: < 100 nM

## CC[C@H](C(=O)N[C@@H](CC1CCCCC1)C(=O)NCCNc1ccc(OC)cc1)c1ccccc1 [Compound 164, N-{2-Cyclohexyl-1-(S)-[2-(4-methoxy-phenylamino)-ethylcarbamoyl]-ethyl}-2-(S)-phenyl-butyramide]
[1]; [3]
  Selectivity for Cat. S over Cat. K: +++ (+++, >1000)
[2]; [4]
  Ki: < 100 nM

## COc1ccc(NCCNC(=O)[C@H](CC2CCCCC2)NC(=O)c2ccc(C(F)(F)F)cc2F)cc1 [Compound 169, (S)-N-{2-Cyclohexyl-1-[2-(4-methoxy-phenylamino)-ethylcarbamoyl]-ethyl}-2-fluoro-4-trifluoromethyl-benzamide]
[1]; [3]
  Selectivity for Cat. S over Cat. K: ++ (++, >100)
[2]; [4]
  Ki: < 1000 nM

## COc1ccc(NCCNC(=O)[C@H](CC2CCCCC2)NC(=O)c2ccc3nc(N)sc3c2)cc1 [Compound 187, (S)-2-Amino-benzothiazole-6-carboxylic acid {2-cyclohexyl-1-[2-(4-methoxy-phenylamino)-ethylcarbamoyl]-ethyl}-amide]
[1]; [3]
  Selectivity for Cat. S over Cat. K: + (+, >10)
[2]; [4]
  Ki: < 100 nM

## COc1ccc(NCCNC(=O)[C@H](Cc2ccc([N+](=O)[O-])cc2)NC(=O)c2cccc(C)c2)cc1 [Compound 244, (S)-N-[1-[2-(4-Methoxy-phenylamino)-ethylcarbamoyl]-2-(4-nitro-phenyl)-ethyl]-3-methyl-benzamide]
[1]; [3]
  Selectivity for Cat. S over Cat. K: +++ (+++, >1000)
[2]; [4]
  Ki: < 1000 nM

## COc1ccc(NCCNC(=O)[C@H](CC2CCCCC2)NC(=O)c2ccc(Br)s2)cc1 [Compound 182, (S)-5-Bromo-thiophene-2-carboxylic acid {2-cyclohexyl-1-[2-(4-methoxy-phenylamino)-ethylcarbamoyl]-ethyl}-amide]
[1]; [3]
  Selectivity for Cat. S over Cat. K: + (+, >10)
[2]; [4]
  Ki: < 100 nM

## O=C(N[C@@H](CC1CCCCC1)C(=O)NCCNc1ccc(OC(F)(F)F)cc1)c1ccc(-c2cccc(OC(F)(F)F)c2)s1 [Compound 209, (S)-5-(3-Trifluoromethoxy-phenyl)-thiophene-2-carboxylic acid {2-cyclohexyl-1-[2-(4-trifluoromethoxy-phenylamino)-ethylcarbamoyl]-ethyl}-amide]
[1]; [3]
  Selectivity for Cat. S over Cat. K: +++ (+++, >1000)
[2]; [4]
  Ki: < 100 nM

## O=C(N[C@@H](CC1CCCCC1)C(=O)NCCNc1ccc(OC(F)(F)F)cc1)c1ccc(-c2ccccc2)cc1 [Compound 234, (S)-Biphenyl-4-carboxylic acid {2-cyclohexyl-1-[2-(4-trifluoromethoxy-phenylamino)-ethylcarbamoyl]-ethyl}-amide]
[1]; [3]
  Selectivity for Cat. S over Cat. K: + (+, >10)
[2]; [4]
  Ki: < 100 nM

## CC(C)C[C@H](NC(=O)OCc1ccccc1)C(=O)NCCNc1cccc2ccccc12 [reference compound]
[1]; comparison compounds in the art, ratio Ki CatK / Ki CatS
  Selectivity for Cat. S over Cat. K: <10
[1]; comparison compounds in the art, read-out: Ki (CatK)
  Ki: < 100 nM
[2]; comparison compounds in the art, read-out: Ki (CatS)
  Ki: < 1000 nM

## COc1ccc(NCCNC(=O)[C@H](Cc2ccccc2)NC(=O)c2ccncc2)cc1 [Compound 64, (S)-N-{1-[2-(4-Methoxy-phenylamino)-ethylcarbamoyl]-2-phenyl-ethyl}-isonicotinamide]
[1]; [3]
  Selectivity for Cat. S over Cat. K: + (+, >10)
[2]; [4]
  Ki: < 10000 nM

## COc1ccc(NCCNC(=O)[C@H](CCC2CCCCC2)NC(=O)c2ccc(-c3cccc(C(F)(F)F)c3)o2)cc1 [Compound 136, (S)-5-(3-Trifluoromethyl-phenyl)-furan-2-carboxylic acid {3-cyclohexyl-1-[2-(4-methoxy-phenylamino)-ethylcarbamoyl]-propyl}-amide]
[1]; [3]
  Selectivity for Cat. S over Cat. K: ++ (++, >100)
[2]; [4]
  Ki: < 1000 nM

## COc1ccc(NCCNC(=O)[C@H](CC2CCCCC2)NC(=O)c2cnn(-c3ccc(Cl)cc3)c2C(F)(F)F)cc1 [Compound 116, (S)-1-(4-Chloro-phenyl)-5-trifluoromethyl-1H-pyrazole-4-carboxylic acid {2-cyclohexyl-1-[2-(4-methoxy-phenylamino)-ethylcarbamoyl]-ethyl}-amide]
[1]; [3]
  Selectivity for Cat. S over Cat. K: +++ (+++, >1000)
[2]; [4]
  Ki: < 100 nM

## COc1ccc(NCCNC(=O)[C@H](Cc2ccc(-c3cc(OC)ccc3OC)cc2)NC(=O)c2cccc(C)c2)cc1 [Compound 285, (S)-N-{2-(2′,5′-Dimethoxy-biphenyl-4-yl)-1-[2-(4-methoxy-phenylamino)-ethylcarbamoyl]-ethyl}-3-methyl-benzamide]
[1]; [3]
  Selectivity for Cat. S over Cat. K: ++ (++, >100)
[2]; [4]
  Ki: < 1000 nM

## COc1ccc(NCCNC(=O)[C@H](Cc2ccc(Oc3cccc(C)c3)cc2)NC(=O)c2cccc(C)c2)cc1 [Compound 267, (S)-N-[1-[2-(4-Methoxy-phenylamino)-ethylcarbamoyl]-2-(4-m-tolyloxy-phenyl)-ethyl]-3-methyl-benzamide]
[1]; [3]
  Selectivity for Cat. S over Cat. K: +++ (+++, >1000)
[2]; [4]
  Ki: < 100 nM

## COc1ccc(NCCNC(=O)[C@H](Cc2ccc(-c3ccc(C#N)cc3)cc2)NC(=O)c2cccc(C)c2)cc1 [Compound 276, (S)-N-{2-(4′-Cyano-biphenyl-4-yl)-1-[2-(4-methoxy-phenylamino)-ethylcarbamoyl]-ethyl}-3-methyl-benzamide]
[1]; [3]
  Selectivity for Cat. S over Cat. K: +++ (+++, >1000)
[2]; [4]
  Ki: < 100 nM

## COc1ccc(NCCNC(=O)[C@H](Cc2ccc(-c3ccc(Cl)cc3)cc2)NC(=O)c2cccc(C)c2)cc1 [Compound 278, (S)-N-{2-(4′-Chloro-biphenyl-4-yl)-1-[2-(4-methoxy-phenylamino)-ethylcarbamoyl]-ethyl}-3-methyl-benzamide]
[1]; [3]
  Selectivity for Cat. S over Cat. K: ++ (++, >100)
[2]; [4]
  Ki: < 1000 nM

## C[C@@H](C(=O)N[C@@H](CCC1CCCCC1)C(=O)NCCNc1ccc(OC(F)(F)F)cc1)c1ccccc1 [Compound 13, 4-Cyclohexyl-2-(S)-(2-(R)-phenyl-propionylamino)-N-[2-(4-trifluoromethoxy-phenylamino)-ethyl]-butyramide]
[1]; [3]
  Selectivity for Cat. S over Cat. K: +++ (+++, >1000)
[2]; [4]
  Ki: < 100 nM

## O=C(N[C@@H](CC1CCCCC1)C(=O)NCCNc1ccccc1C(=O)O)c1ccc(-c2cccc(C(F)(F)F)c2)o1 [Compound 12, 2-[2-(3-Cyclohexyl-2-(S)-{[5-(3-trifluoromethyl-phenyl)-furan-2-carbonyl]-amino}-propionylamino)-ethylamino]-benzoic acid]
[1]; [3]
  Selectivity for Cat. S over Cat. K: + (+, >10)
[2]; [4]
  Ki: < 100 nM

## COc1ccc(NCCNC(=O)[C@H](CCC2CCCCC2)NC(=O)c2cccc(OC(F)(F)F)c2)cc1 [Compound 138, (S)-N-{3-Cyclohexyl-1-[2-(4-methoxy-phenylamino)-ethylcarbamoyl]-propyl}-3-trifluoromethoxy-benzamide]
[1]; [3]
  Selectivity for Cat. S over Cat. K: +++ (+++, >1000)
[2]; [4]
  Ki: < 100 nM
